In the NIST ThermoML archive (doi:10.1016/j.fluid.2012.03.002):
± gives the expanded uncertainty stated by the source.

Tests used:
[1] = Crystal; DTA
[2] = Molar enthalpy of transition or fusion; conditions: Crystal; DSC

Normal melting temperature [1]: 31.50 ± 0.7 °C
Molar enthalpy of transition or fusion [2]: 13 ± 0.263 kcal/mol
Compound: C=CC(=O)Oc1cccc(CCCCCCCCCCCCCCC)c1 [3-pentadecylphenyl acrylate]
